Our source for the IC50 values is patent US8604042B2, “Bi-aryl meta-pyrimidine inhibitors of kinases” (TargeGen, Inc., priority 2005, dated 2013).

pIC50: −log10 of the molar value. Where a name gives a salt, the structure may show the parent alone.

As a reminder, the pIC50 is the IC50 on a negative log10 scale, so that one unit is a factor of ten.

T1 sequence (O60674 808-1132 limits assumed): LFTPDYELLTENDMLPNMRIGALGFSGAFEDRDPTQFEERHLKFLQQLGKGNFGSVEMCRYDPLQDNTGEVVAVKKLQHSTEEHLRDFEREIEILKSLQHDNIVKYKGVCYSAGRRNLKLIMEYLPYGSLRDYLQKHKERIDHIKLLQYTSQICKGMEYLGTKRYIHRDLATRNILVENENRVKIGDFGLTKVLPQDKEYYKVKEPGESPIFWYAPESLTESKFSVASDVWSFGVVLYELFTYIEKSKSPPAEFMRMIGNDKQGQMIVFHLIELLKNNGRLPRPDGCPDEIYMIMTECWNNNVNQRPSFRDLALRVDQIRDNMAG

This assay concerns the target T1, recombinant JAK2 (Homo sapiens, UniProt O60674).
T1 construct: purchased Upstate Cell Signaling Solutions
Briefly: IC50 value determinations for Jak2 kinase, luminescence-based kinase assay (Kinase-Glo). Type of assay: biochemical. The note with it: Table 1. On the technique in general: Kinase-Glo measures the ATP left after a reaction by luminescence.
Take `Cc1cnc(Nc2ccc(CN3CCN(C)CC3)cc2)nc1Nc1cccc(S(=O)(=O)NC(C)(C)C)c1`: the pIC50 is 7.53.
`Cc1cnc(Nc2ccc(N3CCN(C)CC3)cc2)nc1Nc1cccc(NC(=O)Nc2cccc(C(F)(F)F)c2)c1` [1-(3-{5-Methyl-2-[4-(4-methyl-piperazin-1-yl)-phenylamino]-pyrimidin-4-ylamino}-phenyl)-3-(3-trifluoromethyl-phenyl)-urea]: the pIC50 was 6.90.
As for `Cc1cnc(Nc2ccc(N3CCN(C)CC3)cc2)nc1Nc1cccc(NC(=O)Nc2ccccc2)c1` [1-(3-{5-Methyl-2-[4-(4-methyl-piperazin-1-yl)-phenylamino]-pyrimidin-4-ylamino}-phenyl)-3-phenyl-urea], the pIC50 is 7.20.
On to `CNS(=O)(=O)c1cc(Nc2nc(Nc3ccc(OCCN4CCCC4)cc3)ncc2C)ccc1C` [2,N-Dimethyl-5-{5-methyl-2-[4-(2-pyrrolidin-1-yl-ethoxy)-phenylamino]-pyrimidin-4-ylamino}-benzenesulfonamide], for which the pIC50 is 6.90.
With `CCOC(=O)c1cccc(Nc2nc(Nc3ccc(N4CCN(C)CC4)cc3)ncc2C)c1C` [2-Methyl-3-{5-methyl-2-[4-(4-methyl-piperazin-1-yl)-phenylamino]-pyrimidin-4-ylamino)-benzoic acid ethyl ester], the pIC50 is 7.56.
For the compound `Cc1cnc(Nc2ccc(N3CCN(C)CC3)cc2)nc1Nc1cccc(C(N)=O)c1C` [2-Methyl-3-{5-methyl-2-[4-(4-methyl-piperazin-1-yl)-phenylamino]-pyrimidin-4-ylamino}-benzamide], the pIC50 is 7.58.
`Cc1cnc(Nc2ccc(N3CCN(C)CC3)cc2)nc1Nc1cccc(C2CCN(CCO)CC2)c1` [2-[4-(3-{5-Methyl-2-[4-(4-methyl-piperazin-1-yl)-phenylamino]-pyrimidin-4-ylamino}-phenyl)-piperidin-1-yl]-ethanol]: the pIC50 is 8.07.
Under `COc1cc(Nc2nc(Nc3ccc(OCCO)cc3)ncc2C)ccc1Cl` [2-{4-[4-(4-Chloro-3-methoxy-phenylamino)-5-methyl-pyrimidin-2-ylamino]-phenoxy}-ethanol] stands 8.04; under `Cc1cnc(Nc2ccc(OCCO)nc2)nc1Nc1cccc2c1OCO2` [2-{5-[4-(Benzo[1,3]dioxol-4-ylamino)-5-methyl-pyrimidin-2-ylamino]-pyridin-2-yloxy}-ethanol], 6.94.
For `Cc1cnc(Nc2ccc(OCCN3CCCC3)cc2)nc1Nc1cccc(O)c1` [3-(2-(4-(2-(pyrrolidin-1-yl)ethoxy)phenylamino)-5-methylpyrimidin-4-ylamino)phenol Hydrochloride], the pIC50 is 6.69.
As to `Cc1cnc(Nc2ccc(OC3CCNCC3)cc2)nc1Nc1cccc(O)c1` [3-(2-(4-(piperidin-4-yloxy)phenylamino)-5-methylpyrimidin-4-ylamino)phenol], the pIC50 was 7.28.
On to `CC(=O)N1CCN(c2ccc(Nc3ncc(C)c(Nc4cccc(S(=O)(=O)NC(C)(C)C)c4)n3)cc2C(F)(F)F)CC1` [3-[(2-{[4-(4-acetylpiperazin-1-yl)-3-(trifluoromethyl)phenyl]amino}-5-methylpyrimidin-4-yl)amino]-N-tert-butylbenzenesulfonamide], for which the pIC50 was 7.45.
`CC(=O)N1CCN(c2ccc(Nc3ncc(C)c(Nc4cccc(S(=O)(=O)NC(C)(C)C)c4)n3)cc2)CC1` [3-{2-[4-(4-Acetyl-piperazin-1-yl)-phenylamino]-5-methyl-pyrimidin-4-ylamino}-N-tert-butyl-benzenesulfonamide]: the pIC50 is 7.73.
Consider `Cc1cnc(Nc2ccc(OCCN3CCCC3)cc2)nc1Nc1cccc(S(N)(=O)=O)c1` [3-{5-Methyl-2-[4-(2-pyrrolidin-1-yl-ethoxy)-phenylamino]-pyrimidin-4-ylamino}-benzenesulfonamide], for which the pIC50 is 7.14.
Under `Cc1cnc(Nc2ccc(N3CCN(C)CC3)cc2)nc1Nc1cccc(S(=O)(=O)NC2CCNCC2)c1` [3-{5-Methyl-2-[4-(4-methyl-piperazin-1-yl)-phenylamino]-pyrimidin-4-ylamino}-N-piperidin-4-yl-benzenesulfonamide] stands 6.27; under `Cc1cnc(Nc2ccc(N3CCN(C)CC3)cc2)nc1Nc1cccc(C(N)=O)c1` [3-{5-Methyl-2-[4-(4-methyl-piperazin-1-yl)-phenylamino]-pyrimidin-4-ylamino}-benzamide], 7.64; under `Cc1cnc(Nc2ccc(N3CCN(C)CC3)cc2)nc1Nc1cccc(S(N)(=O)=O)c1` [3-{5-Methyl-2-[4-(4-methyl-piperazin-1-yl)-phenylamino]-pyrimidin-4-ylamino}-benzenesulfonamide], 7.87.
Take `Cc1cnc(Nc2ccc(OCCN3CCCC3)cc2)nc1Nc1ccc(C#N)c(Cl)c1` [4-(2-(4-(2-(pyrrolidin-1-yl)ethoxy)phenylamino)-5-methylpyrimidin-4-ylamino)-2-chlorobenzonitrile Hydrochloride]: the pIC50 was 7.17.
`O=S(=O)(NCCN1CCCC1)c1ccc(Nc2nccc(Nc3cccc(O)c3)n2)cc1` [4-[4-(3-Hydroxy-phenylamino)-pyrimidin-2-ylamino]-N-(2-pyrrolidin-1-yl-ethyl)-benzenesulfonamide trifluoroacetate]: the pIC50 is 5.44.
For the compound `COc1cccc(Nc2ccnc(Nc3ccc(S(=O)(=O)NCCN4CCCC4)cc3)n2)c1` [4-[4-(3-Methoxy-phenylamino)-pyrimidin-2-ylamino]-N-(2-pyrrolidin-1-yl-ethyl)-benzenesulfonamide trifluoroacetate], the pIC50 is 6.20.
Take `O=S(=O)(NCCN1CCCC1)c1ccc(Nc2nccc(Nc3ccc(O)cc3)n2)cc1` [4-[4-(4-Hydroxy-phenylamino)-pyrimidin-2-ylamino]-N-(2-pyrrolidin-1-yl-ethyl)-benzenesulfonamide]: the pIC50 is 5.01.
With `COc1ccc(Nc2ccnc(Nc3ccc(S(=O)(=O)NCCN4CCCC4)cc3)n2)cc1` [4-[4-(4-Methoxy-phenylamino)-pyrimidin-2-ylamino]-N-(2-pyrrolidin-1-yl-ethyl)-benzenesulfonamide trifluoroacetate] the figure was 4.97; with `Cc1cnc(Nc2ccc(N3CCN(C)CC3)cc2)nc1Nc1cccc(C2CCNCC2)c1` [5-Methyl-N2-[4-(4-methyl-piperazin-1-yl)-phenyl]-N4-(3-piperidin-4-yl-phenyl)-pyrimidine-2,4-diamine], 7.37; with `Cc1cnc(Nc2ccc(N3CCN(C)CC3)cc2)nc1Nc1cccc(S(=O)(=O)N2CCCCC2C)c1` (stereo not shown) [5-Methyl-N2-[4-(4-methyl-piperazin-1-yl)-phenyl]-N4-[3-(2-methyl-piperidine-1-sulfony)-phenyl]-pyrimidine-2,4-diamine Hydrochloride], 7.47.
As for `Cc1cnc(Nc2ccc(N3CCN(C)CC3)cc2)nc1Nc1cccc(S(=O)(=O)N2CCOCC2)c1` [5-Methyl-N2-[4-(4-methyl-piperazin-1-yl)-phenyl]-N4-[3-(morpholine-4-sulfonyl)-phenyl]-pyrimidine-2,4-diamine], the pIC50 is 7.68.
In the case of `Cc1cnc(Nc2ccc(N3CCN(C)CC3)cc2)nc1Nc1cccc(S(=O)(=O)N2CCCCC2)c1` [5-Methyl-N2-[4-(4-methyl-piperazin-1-yl)-phenyl]-N4-[3-(piperidine-1-sulfony)-phenyl]-pyrimidine-2,4-diamine Hydrochloride], the pIC50 is 7.61.
In the case of `Cc1cnc(Nc2ccc(N3CCN(C)CC3)cc2)nc1Nc1cccc(S(=O)(=O)C2CCNCC2)c1` [5-Methyl-N2-[4-(4-methyl-piperazin-1-yl)-phenyl]-N4-[3-(piperidine-4-sulfonyl)-phenyl]-pyrimidine-2,4-diamine], the pIC50 was 6.70.
Under `Cc1cnc(Nc2ccc(N3CCN(C)CC3)cc2)nc1Nc1cccc(S(=O)(=O)N2CCCC2)c1` [5-Methyl-N2-[4-(4-methyl-piperazin-1-yl)-phenyl]-N4-[3-(pyrrolidine-1-sulfony)-phenyl]-pyrimidine-2,4-diamine Hydrochloride] stands 7.77; under `Cc1cnc(Nc2ccc(OC3CCNCC3)cc2)nc1Nc1cccc(C(F)(F)F)c1C` [5-Methyl-N4-(2-methyl-3-trifluoromethyl-phenyl)-N2-[4-(piperidin-4-yloxy)-phenyl]-pyrimidine-2,4-diamine], 7.28; under `Cc1cnc(Nc2ccc(OCCN3CCCC3)cc2)nc1Nc1ccccc1` [5-Methyl-N4-phenyl-N2-[4-(2-pyrrolidin-1-yl-ethoxy)-phenyl]-pyrimidine-2,4-diamine], 7.78.
As for `COC(=O)c1cc(Nc2ncc(C)c(Nc3ccc(Cl)c(OC)c3)n2)ccc1N1CCNCC1` [5-[4-(4-Chloro-3-methoxy-phenylamino)-5-methyl-pyrimidin-2-ylamino]-2-piperazin-1-yl-benzoic acid methyl ester], the pIC50 is 8.29.
With `COC(=O)c1cc(Nc2ncc(C)c(Nc3cccc4c3OCO4)n2)ccc1OCCN1CCCC1` [5-[4-(Benzo[1,3]dioxol-4-ylamino)-5-methyl-pyrimidin-2-ylamino]-2-(2-pyrrolidin-1-yl-ethoxy)-benzoic acid methyl ester], the pIC50 was 7.79.
For `Cc1cnc(Nc2ccc(N3CCN(C)CC3)cc2)nc1Nc1cccc(S(C)(=O)=O)c1` [5-methyl-N2-(4-(4-methylpiperazin-1-yl)phenyl)-N4-(3-(methylsulfonyl)phenyl) pyrimidine-2,4-diamine], the pIC50 is 6.67.
With `Cc1cnc(Nc2ccc(N3CCN(C)CC3)cc2)nc1Nc1cccc(N2CCCCC2)c1` [5-methyl-N2-(4-(4-methylpiperazin-1-yl)phenyl)-N4-(3-(piperidin-1-yl)phenyl)pyrimidine-2,4-diamine], the pIC50 was 7.33.
As to `CCCS(=O)(=O)c1cccc(Nc2nc(Nc3ccc(N4CCN(C)CC4)cc3)ncc2C)c1` [5-methyl-N2-(4-(4-methylpiperazin-1-yl)phenyl)-N4-(3-(propylsulfonyl)phenyl) pyrimidine-2,4-diamine], the pIC50 is 8.10.
Take `Cc1cnc(Nc2ccc(N3CCN(C)CC3)cc2)nc1Nc1cccc(C)c1C` [5-methyl-N4-(2,3-dimethylphenyl)-N2-(4-(4-methylpiperazin-1-yl)phenyl)pyrimidine-2,4-diamine Hydrochloride]: the negative-log IC50 (pIC50) was 7.80.
As to `Cc1cnc(Nc2ccc(OC3CCNCC3)cc2)nc1Nc1cccc(C)c1C` [5-methyl-N4-(2,3-dimethylphenyl)-N2-(4-(piperidin-4-yloxy)phenyl)pyrimidine-2,4-diamine Hydrochloride], the pIC50 is 8.36.
